Bridge positions count the residues as written; N and C are the ends. Square brackets hold non-standard residues; d marks the D form. Peptide text beside a SMILES is read from it. Phe(4-COOH) = N[C@@H](Cc1ccc(C(=O)O)cc1)C(=O)O; R8 = C=CCCCCCC[C@@](C)(N)C(=O)O; S5 = C=CCCC[C@](C)(N)C(=O)O; Nle = CCCC[C@H](N)C(=O)O
Tests used:
[1] = biological target: T1, flag-tagged HIF1α (AA 786-826) / His6-tagged p300 (AA 323-423) complex (Homo sapiens, UniProt Q09472); test: HIF1α p300 displacement assay (TR FRET, +CHAPS); format: binding; conditions: read-out: IC50 (nM) (HIF1α_p300 Displacement + CHAPS)
T1 construct: His6-tagged p300 (AA 323-423); made in house; host or cells: E. coli (pETDuet vector)
How it was run: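 In this TR-FRET displacement format, peptides compete HIF1α C-terminal transactivation domain off p300-CH. They were preincubated 1 h at room temperature with 300 nM complex in HEPES pH 7.4/NaCl buffer with 7.5 mM CHAPS and 1 mM DTT. Anti-His-D2 (4 nM) and anti-Flag-K (0.5 μM) followed for 2 h, and a one-site fit of the fluorescence ratio gave IC50.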

HRE-bla ME-180 cells [2] = test: Reporter gene assay (HRE-bla ME-180 HIF reporter, GeneBLAzer); format: cell-based, human; conditions: for EC50: 24 hour normoxia
How it was run: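 A FRET β-lactamase readout of HIF transcription was used. After compound treatment in 0.3% DMSO/media under normoxic conditions, 20 μl of 6× LiveBLAzer-FRET B/G (CCF4-AM) substrate was added. Plates sat 3 hr at room temperature in the dark and were read at 409 Ex/460Em and 409Ex/530Em on a Synergy 2. Inhibition was compared against DMSO vehicle controls, with chetomin as positive control.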

HRE-bla ME-180 cells [3] = test: Cell proliferation assay (viability, MTT, 1% FBS); format: cell-based, human
How it was run: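 Viable cell number was measured with the CellTiter 96 (MTT) kit after compounds were applied for a 16 h normoxic (21% O2) pretreatment, followed by further normoxic or hypoxic (1% O2) culture. Cells: 2×10^4 ME-180 per well, Opti-MEM + 1% FBS, 0.5% DMSO vehicle.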

SMILES	IC50 [1] [nM]	18 h Avg % max inhibition at top conc (HIF Rptr-24 hrs normoxia) (μM) (HRE-bla ME-180 cells [2])	EC50 (HRE-bla ME-180 cells [2]) [µM]	Viability 1% FBS AVG (MTT V3-24 hr Normoxia) (μM) (HRE-bla ME-180 cells [3])
CCCC[C@H](NC(=O)[C@H](CC(C)C)NC(=O)[C@@H](NC(=O)[C@H](CCC(=O)O)NC(=O)[C@H](CCC(=O)O)NC(=O)[C@H](CC(=O)O)NC(=O)[C@@H](NC(=O)[C@H](Cc1ccccc1)NC(C)=O)[C@@H](C)CC)C(C)C)C(=O)N[C@@]1(C)CCCC=CCCC[C@@](C)(C(=O)N[C@@H](CCSC)C(=O)N[C@@H](C)C(=O)N[C@@H](CC(C)C)C(N)=O)NC(=O)[C@H]([C@@H](C)CC)NC(=O)[C@H](C(C)C)NC(=O)[C@H](CC(C)C)NC1=O [SP-224] (Ac-FIDEEVL[Nle][S5]LVI[S5]MAL-NH2; staple 9-13)	400 to 700	++ (≤10 but <25: ++)	> 30	++++ (≥30: ++++)
CC[C@H](C)[C@H](NC(=O)[C@H](CCCNC(=N)N)NC(=O)[C@H](CC(=O)O)NC(=O)[C@H](CC(C)C)NC(=O)[C@H](C)NC(=O)[C@H](CCSC)NC(=O)[C@]1(C)CCCC=CCCC[C@](C)(NC(=O)[C@H](CCSC)NC(=O)[C@H](CC(C)C)NC(=O)[C@@H](NC(=O)[C@H](Cc2c[nH]cn2)NC(=O)[C@H](CCC(=O)O)NC(=O)[C@H](CC(N)=O)NC(=O)[C@@H](NC(=O)[C@H](Cc2ccccc2)NC(C)=O)[C@@H](C)CC)C(C)C)C(=O)N[C@@H](CC(C)C)C(=O)N[C@@H](C(C)C)C(=O)N[C@@H]([C@@H](C)CC)C(=O)N1)C(N)=O [SP-286] (Ac-FINEHVLM[S5]LVI[S5]MALDRI-NH2; staple 9-13)	> 700	++ (≤10 but <25: ++)	> 30	++++ (≥30: ++++)
CCCC[C@H](NC(=O)[C@H](CC(C)C)NC(=O)[C@@H](NC(=O)[C@H](CCC(=O)O)NC(=O)[C@H](CCC(=O)O)NC(=O)[C@H](C)NC(=O)[C@@H](NC(=O)[C@H](Cc1ccccc1)NC(C)=O)[C@@H](C)CC)C(C)C)C(=O)N[C@@]1(C)CCCC=CCCC[C@@](C)(C(=O)N[C@@H](CCCC)C(=O)N[C@@H](C)C(=O)N[C@@H](CC(C)C)C(=O)N[C@@H](CC(=O)O)C(=O)N[C@@H](C)C(=O)N[C@H](C(N)=O)[C@@H](C)CC)NC(=O)[C@H]([C@@H](C)CC)NC(=O)[C@H](C(C)C)NC(=O)[C@H](CC(C)C)NC1=O [SP-221] (Ac-FIAEEVL[Nle][S5]LVI[S5][Nle]ALDAI-NH2; staple 9-13)	200 to 400	++++ (≥50: ++++)	15 to 30	++++ (≥30: ++++)
CCCC[C@H](NC(=O)[C@H](CCC(=O)O)NC(=O)[C@]1(C)CCCC=CCCCCCC[C@@](C)(NC(=O)[C@H](CCC(=O)O)NC(=O)[C@H](CC(=O)O)NC(=O)[C@@H](NC(=O)[C@H](CC(N)=O)NC(=O)[C@@H](NC(=O)[C@]2(C)CCCC=CCCCCCC[C@@](C)(NC(=O)[C@H](CCC(=O)O)NC(=O)CNC(=O)[C@H](CCC(N)=O)NC(=O)[C@H](CC(C)C)NC(=O)[C@H](CC(C)C)NC(C)=O)C(=O)N[C@@H](CC(C)C)C(=O)N[C@@H](CC(C)C)C(=O)N[C@@H](CCCNC(=N)N)C(=O)N[C@@H](C)C(=O)N[C@@H](CC(C)C)C(=O)N[C@@H](CC(=O)O)C(=O)N2)C(C)C)[C@@H](C)CC)C(=O)N[C@@H](C(C)C)C(=O)N[C@@H](CC(C)C)C(=O)N[C@@H](CCCC)C(=O)N[C@@H](CO)C(=O)N[C@@H](CC(C)C)C(=O)N[C@@H](C(C)C)C(=O)N1)C(=O)NCC(N)=O [SP-313] (Ac-LLQGE[R8]LLRALD[S5]VNIDE[R8]VL[Nle]SLV[S5]E[Nle]G-NH2; staple 6-13, 19-26)	200 to 400	+ (<10: +)	> 30	++++ (≥30: ++++)
CCCC[C@H](NC(=O)[C@H](CCC(=O)O)NC(=O)[C@@H](NC(=O)[C@@H](NC(=O)[C@H](CC(C)C)NC(=O)[C@]1(C)CCCC=CCCC[C@](C)(NC(=O)[C@H](CCC(=O)O)NC(=O)[C@H](CC(=O)O)NC(=O)[C@@H](NC(=O)[C@H](Cc2ccccc2)NC(=O)[C@H](CCCCN)NC(C)=O)[C@@H](C)CC)C(=O)N[C@@H](C(C)C)C(=O)N[C@@H](CC(C)C)C(=O)N[C@@H](CCCC)C(=O)N1)C(C)C)[C@@H](C)CC)C(=O)N[C@@H](C)C(=O)N[C@@H](CC(C)C)C(N)=O [SP-134] (Ac-KFIDE[S5]VL[Nle][S5]LVIE[Nle]AL-NH2; staple 6-10)	200 to 400	+++ (≤25 but <50: +++)	> 30	++++ (≥30: ++++)
CCCC[C@H](NC(=O)[C@H](CC(C)C)NC(=O)[C@@H](NC(=O)[C@H](CCC(=O)O)NC(=O)[C@H](CCC(=O)O)NC(=O)[C@H](CC(=O)O)NC(=O)[C@@H](NC(=O)[C@H](CC(N)=O)NC(=O)[C@@H](NC(=O)[C@]1(C)CCCC=CCCCCCC[C@@](C)(NC(=O)[C@H](CCC(=O)O)NC(=O)CNC(=O)[C@H](CCC(N)=O)NC(=O)[C@H](CC(C)C)NC(=O)[C@H](CC(C)C)NC(C)=O)C(=O)N[C@@H](CC(C)C)C(=O)N[C@@H](CC(C)C)C(=O)N[C@@H](CCCNC(=N)N)C(=O)N[C@@H](C)C(=O)N[C@@H](CC(C)C)C(=O)N[C@@H](CC(=O)O)C(=O)N1)C(C)C)[C@@H](C)CC)C(C)C)C(=O)N[C@@]1(C)CCCC=CCCC[C@@](C)(C(=O)N[C@@H](CCCC)C(=O)N[C@@H](C)C(=O)N[C@@H](CC(C)C)C(N)=O)NC(=O)[C@H]([C@@H](C)CC)NC(=O)[C@H](C(C)C)NC(=O)[C@H](CC(C)C)NC1=O [SP-372] (Ac-LLQGE[R8]LLRALD[S5]VNIDEEVL[Nle][S5]LVI[S5][Nle]AL-NH2; staple 6-13, 23-27)	400 to 700	++++ (≥50: ++++)	> 30	++++ (≥30: ++++)
CC[C@H](C)[C@H](NC(=O)[C@H](Cc1ccccc1)NC(C)=O)C(=O)N[C@@H](CC(=O)O)C(=O)N[C@@H](Cc1ccc(C(=O)O)cc1)C(=O)N[C@@H](CCC(=O)O)C(=O)N[C@H](C(=O)N[C@@H](CC(C)C)C(=O)N[C@@H](CCSC)C(=O)N[C@@]1(C)CCCC=CCCC[C@@](C)(C(=O)N[C@@H](CCSC)C(=O)N[C@@H](C)C(=O)N[C@@H](Cc2ccccc2)C(N)=O)NC(=O)[C@H]([C@@H](C)CC)NC(=O)[C@H](C(C)C)NC(=O)[C@H](CC(C)C)NC1=O)C(C)C [SP-228] (Ac-FID[Phe(4-COOH)]EVLM[S5]LVI[S5]MAF-NH2; staple 9-13)	200 to 400	+++ (≤25 but <50: +++)	> 30	++++ (≥30: ++++)
CCCC[C@H](NC(=O)[C@H](CCC(=O)O)NC(=O)[C@]1(C)CCCC=CCCCCCC[C@@](C)(NC(=O)[C@H](CCC(=O)O)NC(=O)[C@H](CC(=O)O)NC(=O)[C@@H](NC(=O)[C@H](CC(N)=O)NC(=O)[C@@H](NC(=O)[C@]2(C)CCCC=CCCCCCC[C@@](C)(NC(=O)[C@H](CCC(=O)O)NC(C)=O)C(=O)N[C@@H](CC(C)C)C(=O)N[C@@H](CC(C)C)C(=O)N[C@@H](CCCNC(=N)N)C(=O)N[C@@H](C)C(=O)N[C@@H](CC(C)C)C(=O)N[C@@H](CC(=O)O)C(=O)N2)C(C)C)[C@@H](C)CC)C(=O)N[C@@H](C(C)C)C(=O)N[C@@H](CC(C)C)C(=O)N[C@@H](CCCC)C(=O)N[C@@H](CO)C(=O)N[C@@H](CC(C)C)C(=O)N[C@@H](C(C)C)C(=O)N1)C(N)=O [SP-358] (Ac-E[R8]LLRALD[S5]VNIDE[R8]VL[Nle]SLV[S5]E[Nle]-NH2; staple 2-9, 15-22)	200 to 400	+ (<10: +)	> 30	++++ (≥30: ++++)
CCCC[C@H](NC(=O)[C@H](CCC(=O)O)NC(=O)[C@@H](NC(=O)[C@@H](NC(=O)[C@H](CC(C)C)NC(=O)[C@]1(C)CCCC=CCCC[C@](C)(NC(=O)[C@H](CCC(=O)O)NC(=O)[C@H](CC(=O)O)NC(=O)[C@@H](NC(=O)[C@H](Cc2ccccc2)NC(C)=O)[C@@H](C)CC)C(=O)N[C@@H](C)C(=O)N[C@@H](CC(C)C)C(=O)N[C@@H](CCCC)C(=O)N1)C(C)C)[C@@H](C)CC)C(=O)N[C@@H](C)C(=O)N[C@@H](CC(C)C)C(N)=O [SP-138] (Ac-FIDE[S5]AL[Nle][S5]LVIE[Nle]AL-NH2; staple 5-9)	200 to 400	+++ (≤25 but <50: +++)	> 30	++++ (≥30: ++++)
CC[C@H](C)[C@H](NC(=O)[C@H](Cc1ccccc1)NC(C)=O)C(=O)N[C@@H](CC(=O)O)C(=O)N[C@@H](CCC(=O)O)C(=O)N[C@@]1(C)CCCC=CCCC[C@@](C)(C(=O)N[C@@H](CC(C)C)C(=O)N[C@H](C(=O)N[C@H](C(=O)N[C@@H](CCC(=O)O)C(=O)N[C@@H](CCSC)C(=O)N[C@@H](C)C(=O)N[C@@H](C)C(N)=O)[C@@H](C)CC)C(C)C)NC(=O)[C@H](CCSC)NC(=O)[C@H](CC(C)C)NC(=O)[C@H](C(C)C)NC1=O [SP-116] (Ac-FIDE[S5]VLM[S5]LVIEMAA-NH2; staple 5-9)	> 700	+++ (≤25 but <50: +++)	> 30	++++ (≥30: ++++)

From patent US20190225650A1, “PEPTIDOMIMETIC MACROCYCLES AND USE THEREOF IN REGULATING HIF1ALPHA” (AILERON THERAPEUTICS, INC., priority 2013, published 2019)
